Test results taken from ChEMBL document CHEMBL1151034, “De novo design of nonpeptidic HIV-1 protease inhibitors: Incorporation of structural water” (Bioorg Med Chem Lett, 1994).

What was measured:
[1] = molecular target: Human immunodeficiency virus type 1 protease (Human immunodeficiency virus 1) (UniProt Q72874); assay: (§1) Inhibitory activity against HIV-1 protease; conditions: concentration not given here
[2] = molecular target: Human immunodeficiency virus type 1 protease (Human immunodeficiency virus 1, UniProt Q72874); assay: as §1
[3] = molecular target: Human immunodeficiency virus type 1 protease (Human immunodeficiency virus 1) (UniProt Q72874); conditions: 100 uM
Description: Inhibitory activity against HIV-1 protease at 100 uM concentration

Compound: O=C1N(Cc2ccc3ccccc3c2)[C@@H](Cc2ccccc2)C(O)[C@H](Cc2ccccc2)N1Cc1ccc2ccccc2c1
- inhibition [1]: 6%

Compound: O=C1N(CC2CC2)[C@@H](Cc2ccccc2)C(O)[C@H](Cc2ccccc2)N1CC1CC1
- IC50 [2]: 9 µM

Compound: O=C1N(Cc2ccccc2)[C@@H](Cc2ccccc2)C(O)[C@H](Cc2ccccc2)N1Cc1ccccc1
- IC50 [2]: 89 µM

Compound: C=CCN1C(=O)N(CC=C)[C@@H](Cc2ccccc2)C(O)[C@@H]1Cc1ccccc1
- IC50 [2]: 53 µM

Compound: O=C1N[C@@H](Cc2ccccc2)C(O)[C@H](Cc2ccccc2)N1
- inhibition [3]: 35%
- IC50 [2]: > 100 µM
